Measured values taken from US7138361B2, “Herbicidal heterocycles” (E. I. du Pont de Nemours and Company, priority 2000, dated 2006).

What was measured:
Type in all cases: in vivo
Sunflower [1] = assay: Test C preemergence; settings: Rate 500 g/ha, visual evaluation after 12 to 14 days
corn (Zea mays) [2] = assay: Test C preemergence
Outline: (§1)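 Each compound was dissolved in a non-phytotoxic solvent system containing a surfactant and sprayed either on freshly planted seeds (preemergence) or on young plants, 2 to 18 cm high (postemergence). Ratings after 12 to 14 greenhouse days ran from 0, no effect, to 100, complete control.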

[3] = tested on: velvetleaf (Abutilon theophrasti); assay: Test C preemergence
Outline: as §1

[4] = tested on: johnsongrass (Sorghum halepense); assay: Test C preemergence
Outline: as §1

[5] = tested on: common ragweed (Ambrosia elatior); assay: Test C preemergence
Outline: as §1

Nightshade = assay: Test C preemergence
Sunflower [6] = assay: Test C preemergence; settings: Rate 125 g/ha; scale 0 to 100, 0 no effect, 100 complete control
[7] = tested on: lambsquarters (Chenopodium album); assay: Test C preemergence
Outline: as §1

[8] = tested on: yellow nutsedge (Cyperus esculentus); assay: Test C preemergence
Outline: as §1

[9] = tested on: morningglory (Ipomoea hederacea); assay: Test C preemergence
Outline: as §1

[10] = tested on: goosegrass (Eleusine indica); assay: Test C preemergence
Outline: as §1

[11] = tested on: Surinam grass (Brachiaria decumbens); assay: Test B postemergence
Outline: (§2)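 Preemergence: seeds planted and treated with test chemicals in non-phytotoxic solvent with surfactant; postemergence on plants 2–18 cm (1- to 4-leaf stage). Kept in greenhouse 13–15 days, then visually rated against controls on a 0 (no effect) to 100 (complete control) scale.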

[12] = tested on: pigweed (Amaranthus retroflexus); assay: Test B postemergence; settings: Rate 125 g/ha, scale 0 to 100, 0 no effect, 100 complete control
Outline: as §2

corn (Zea mays) [13] = assay: Test B postemergence
Outline: as §2

[14] = tested on: velvetleaf (Abutilon theophrasti); assay: Test B postemergence; settings: Rate 125 g/ha, scale 0 to 100, 0 no effect, 100 complete control
Outline: as §2

[15] = tested on: giant foxtail (Setaria faberii); assay: Test B postemergence; settings: Rate 125 g/ha, scale 0 to 100, 0 no effect, 100 complete control
Outline: as §2

[16] = tested on: barnyardgrass (Echinochloa crus-galli); assay: Test B postemergence
Outline: as §2

[17] = tested on: cocklebur (Xanthium strumarium); assay: Test B postemergence
Outline: as §2

[18] = tested on: wheat (Triticum aestivum); assay: Test B postemergence; settings: Rate 125 g/ha, scale 0 to 100, 0 no effect, 100 complete control
Outline: as §2

[19] = tested on: crabgrass (Digitaria sanguinalis); assay: Test B postemergence; settings: Rate 125 g/ha, scale 0 to 100, 0 no effect, 100 complete control
Outline: as §2

wild oat (Avena fatua) = assay: Test B postemergence; settings: Rate 125 g/ha, scale 0 to 100, 0 no effect, 100 complete control
Outline: as §2

[20] = tested on: morning glory (Ipomoea hederacea); assay: Test B postemergence; settings: Rate 125 g/ha, scale 0 to 100, 0 no effect, 100 complete control
Outline: as §2

[21] = Rate 125 g/ha, scale 0 to 100, 0 no effect, 100 complete control
[22] = preemergence, Rate 62 g/ha, scale 0 to 100
[23] = preemergence, Rate 500 g/ha, visual evaluation after 12 to 14 days
[24] = preemergence, Rate 250 g/ha, scale 0 to 100, 0 no effect, 100 complete control
[25] = Rate 500 g/ha, scale 0 to 100, 0 is no effect, 100 is complete control, 13 to 15 days

With `CCCC(C)c1ccn(C2CCN(c3cccc(OCC)c3)C2=O)n1` (stereo not drawn) [Compound 129] the “Plant response rating (0 to 100), Sunflower” value (Sunflower [1]) was 10, the “Plant response rating, Corn” value (corn (Zea mays) [2]; [21]) was 20 and the “Plant response rating, Corn” value (corn (Zea mays) [2]; [22]) was 0. The “Plant response rating (0 to 100), Corn” value (corn (Zea mays) [2]; [23]) was 30, the “Plant response rating, Corn” value (corn (Zea mays) [2]; [24]) was 30 and the “Plant response rating, Velvetleaf” value [3, 21] was 0. The “Plant response rating, Velvetleaf” value [3, 22] was 0, the “Plant response rating (0 to 100), Velvetleaf” value [3, 23] was 10 and the “Plant response rating, Velvetleaf” value [3, 24] was 0. For the same compound, the “Plant response rating, Johnsongrass” value [4, 21] was 70, the “Plant response rating, Johnsongrass” value [4, 22] was 20 and the “Plant response rating (0 to 100), Johnsongrass” value [4, 23] was 100. The “Plant response rating, Johnsongrass” value [4, 24] was 100, the “Plant response rating, Ragweed, Common” value [5, 21] was 0 and the “Plant response rating, Ragweed, Common” value [5, 22] was 0. The “Plant response rating (0 to 100), Ragweed, Common” value [5, 23] was 100, the “Plant response rating, Ragweed, Common” value [5, 24] was 100 and the “Plant response rating, Nightshade” value (Nightshade; Rate 62 g/ha, scale 0 to 100) was 0. The “Plant response rating, Nightshade” value (Nightshade; [21]) was 0, the “Plant response rating, Nightshade” value (Nightshade; Rate 250 g/ha, scale 0 to 100, 0 no effect, 100 complete control) was 10 and the “Plant response rating, Sunflower” value (Sunflower [6]) was 0. For the same compound, the “Plant response rating, Lambsquarters” value [7, 21] was 100, the “Plant response rating, Lambsquarters” value [7, 22] was 100 and the “Plant response rating (0 to 100), Lambsquarters” value [7, 23] was 100. The “Plant response rating, Lambsquarters” value [7, 24] was 100, the “Plant response rating, Nutsedge” value [8, 21] was 0 and the “Plant response rating, Nutsedge” value [8, 22] was 0. For the same compound, the “Plant response rating (0 to 100), Nutsedge” value [8, 23] was 90, the “Plant response rating, Nutsedge” value [8, 24] was 50 and the “Plant response rating, Morningglory” value [9, 21] was 0. For the same compound, the “Plant response rating, Morningglory” value [9, 22] was 0, the “Plant response rating (0 to 100), Morningglory” value [9, 23] was 0 and the “Plant response rating, Goosegrass” value [10, 21] was 100. The “Plant response rating, Goosegrass” value [10, 22] was 100, the “Plant response rating (0 to 100), Goosegrass” value [10, 23] was 100 and the “Plant response rating, Goosegrass” value [10, 24] was 100. The “Plant response rating, Surinam grass” value [11, 21] was 0, the “Plant response rating, Surinam grass” value [11, 25] was 0 and the “Plant response rating, Pigweed” value [12] was 0. For the same compound, the “Plant response rating, Corn” value (corn (Zea mays) [13]; [21]) was 0, the “Plant response rating, Corn” value (corn (Zea mays) [13]; [25]) was 0 and the “Plant response rating, Velvetleaf” value [14] was 0. The “Plant response rating, Foxtail, Giant” value [15] was 0, the “Plant response rating, Barnyardgrass” value [16, 21] was 0 and the “Plant response rating, Barnyardgrass” value [16, 25] was 60. The “Plant response rating, Cocklebur” value [17, 21] was 0, the “Plant response rating, Cocklebur” value [17, 25] was 30 and the “Plant response rating, Wheat” value [18] was 0. The “Plant response rating, Crabgrass” value [19] was 0, the “Plant response rating, Wild Oat” value (wild oat (Avena fatua)) was 0 and the “Plant response rating, Morningglory” value [20] was 0.
